ChEMBL document CHEMBL1132521, “Synthesis and hypoglycemic effect of chrysin derivatives” (Bioorg Med Chem Lett, 1999)

Legend:
Mus musculus [1] = assay: In vivo hypoglycemic activity after administration (50 mg/kg) in mice on day 7 was determined; format: functional
Mus musculus [2] = assay: In vivo hypoglycemic activity after administration (50 mg/kg) in mice on day 0 was determined; format: functional
[3] = Ratio of hypoglycemic activity in mice was tested on day 7.; format: functional
Mus musculus [4] = assay: In vivo hypoglycemic activity after administration (43 mg/kg) in mice on day 7 was determined; format: functional
Mus musculus [5] = assay: In vivo hypoglycemic activity after administration (43 mg/kg) in mice on day 0 was determined; format: functional
Mus musculus [6] = assay: Abnormal symptoms was determined in mouse after oral administration of 500 mg/kg; - sign indicates abnormal symptoms in treated mouse; format: functional, organism-based; design: dose 500 mg/kg
Rattus norvegicus [7] = assay: Body weight was determined in rat after oral administration of 500 mg/kg on day 7; format: functional
Mus musculus [8] = assay: Daily food consumption was determined in mouse after oral administration of 100 mg/kg; format: functional
Mus musculus [9] = assay: Body weight was determined in mouse after oral administration of 20 mg/kg on day 7; format: functional
Rattus norvegicus [10] = assay: Lung weight was determined in rat after oral administration of 500 mg/kg; format: functional; design: unit not given beside the values
Rattus norvegicus [11] = assay: Daily food consumption was determined in rat after oral administration of 500 mg/kg; format: functional
Mus musculus [12] = assay: Body weight was determined in mouse after oral administration of 5 mg/kg on day 0; format: functional
Rattus norvegicus [13] = assay: Spleen weight was determined in rat after oral administration of 500 mg/kg; format: functional; design: unit not given beside the values
Rattus norvegicus [14] = assay: Daily water consumption was determined in rat after oral administration of 500 mg/kg; format: functional
Mus musculus [15] = assay: Body weight was determined in mouse after oral administration of 20 mg/kg on day 0; format: functional
Rattus norvegicus [16] = assay: Abnormal symptoms was determined in rat after oral administration of 500 mg/kg; - sign indicates abnormal symptoms in treated mouse; format: functional, organism-based; design: dose 500 mg/kg
Mus musculus [17] = assay: Daily water consumption was determined in mouse after oral administration of 500 mg/kg; format: functional
Mus musculus [18] = assay: Abnormal symptoms was determined in mouse after oral administration of 5 mg/kg; - sign indicates abnormal symptoms in treated mouse; format: functional, organism-based; design: dose 5 mg/kg
Mus musculus [19] = assay: Body weight was determined in mouse after oral administration of 100 mg/kg on day 7; format: functional
Mus musculus [20] = assay: In vivo hypoglycemic activity after administration (42 mg/kg) in mice on day 7 was determined; format: functional
Mus musculus [21] = assay: Body weight was determined in mouse after oral administration of 100 mg/kg on day 0; format: functional
Mus musculus [22] = assay: Abnormal symptoms was determined in mouse after oral administration of 100 mg/kg; - sign indicates abnormal symptoms in treated mouse; format: functional, organism-based; design: dose 100 mg/kg
Mus musculus [23] = assay: In vivo hypoglycemic activity after administration (42 mg/kg) in mice on day 0 was determined; format: functional
Mus musculus [24] = assay: Daily water consumption was determined in mouse after oral administration of 100 mg/kg; format: functional
Mus musculus [25] = assay: Body weight was determined in mouse after oral administration of 500 mg/kg on day 7; format: functional
Mus musculus [26] = assay: Body weight was determined in mouse after oral administration of 5 mg/kg on day 7; format: functional
Mus musculus [27] = assay: Daily food consumption was determined in mouse after oral administration of 500 mg/kg; format: functional
Mus musculus [28] = assay: Body weight was determined in mouse after oral administration of 500 mg/kg on day 0; format: functional
Mus musculus [29] = assay: Daily water consumption was determined in mouse after oral administration of 5 mg/kg; format: functional
Mus musculus [30] = assay: Daily food consumption was determined in mouse after oral administration of 20 mg/kg; format: functional
Mus musculus [31] = assay: Daily water consumption was determined in mouse after oral administration of 20 mg/kg; format: functional
Rattus norvegicus [32] = assay: Kidney weight was determined in rat after oral administration of 500 mg/kg; format: functional
Mus musculus [33] = assay: Daily food consumption was determined in mouse after oral administration of 5 mg/kg; format: functional
Rattus norvegicus [34] = assay: Body weight was determined in rat after oral administration of 500 mg/kg on day 0; format: functional
Mus musculus [35] = assay: Abnormal symptoms was determined in mouse after oral administration of 20 mg/kg; - sign indicates abnormal symptoms in treated mouse; format: functional, organism-based; design: dose 20 mg/kg
Rattus norvegicus [36] = assay: Liver weight was determined in rat after oral administration of 500 mg/kg; format: functional; design: unit not given beside the values
Mus musculus [37] = assay: In vivo hypoglycemic activity after administration (40 mg/kg) in mice on day 7 was determined; format: functional
Mus musculus [38] = assay: In vivo hypoglycemic activity after administration (40 mg/kg) in mice on day 0 was determined; format: functional
Mus musculus [39] = assay: In vivo hypoglycemic activity after administration (45 mg/kg) in mice on day 0 was determined; format: functional
Mus musculus [40] = assay: In vivo hypoglycemic activity after administration (45 mg/kg) in mice on day 7 was determined; format: functional

O=C(Cc1ccccc1)Oc1cc(O)c2c(=O)cc(-c3ccccc3)oc2c1
Blood glucose (Mus musculus [1]): 515.6 mg/dL | Blood glucose (Mus musculus [2]): 496.2 mg/dL | Ratio [3]: 103.9

CC(=O)Oc1cc(OC(C)=O)c2c(=O)cc(-c3ccccc3)oc2c1 [CHRYSIN DIACETATE]
Blood glucose (Mus musculus [4]): 341.5 mg/dL | Blood glucose (Mus musculus [5]): 472 mg/dL | Ratio [3]: 72.4

CCCOc1cc(OCCC)c2c(=O)cc(-c3ccccc3)oc2c1
Activity (Mus musculus [6]): abnormal symptoms in treated mouse | Body weight (Rattus norvegicus [7]): 300.8 | Food intake (Mus musculus [8]): 49.77 g | Body weight (Mus musculus [9]): 31.9 | Organ weight (Rattus norvegicus [10]): 1.23 | Food intake (Rattus norvegicus [11]): 115.41 g | Body weight (Mus musculus [12]): 22.3 | Organ weight (Rattus norvegicus [13]): 0.61 | Water consumption (Rattus norvegicus [14]): 218.5 mL | Body weight (Mus musculus [15]): 25.3 | Activity (Rattus norvegicus [16]): abnormal symptoms in treated mouse | Water consumption (Mus musculus [17]): 81.75 mL | Activity (Mus musculus [18]): abnormal symptoms in treated mouse | Body weight (Mus musculus [19]): 32.1 | Blood glucose (Mus musculus [20]): 287 mg/dL | Body weight (Mus musculus [21]): 25.2 | Activity (Mus musculus [22]): abnormal symptoms in treated mouse | Blood glucose (Mus musculus [23]): 448.3 mg/dL | Water consumption (Mus musculus [24]): 81.75 mL | Body weight (Mus musculus [25]): 29.5 | Body weight (Mus musculus [26]): 28.2 | Food intake (Mus musculus [27]): 49.87 g | Body weight (Mus musculus [28]): 22.7 | Water consumption (Mus musculus [29]): 80 mL | Food intake (Mus musculus [30]): 53.2 g | Water consumption (Mus musculus [31]): 80.92 mL | Organ weight (Rattus norvegicus [32]): 0.97 | Food intake (Mus musculus [33]): 48.09 g | Body weight (Rattus norvegicus [34]): 235.8 | Activity (Mus musculus [35]): abnormal symptoms in treated mouse | Organ weight (Rattus norvegicus [36]): 9.64 | Ratio [3]: 64

CCCOc1cc(O)c2c(=O)cc(-c3ccccc3)oc2c1
Blood glucose (Mus musculus [1]): 237.8 mg/dL | Blood glucose (Mus musculus [2]): 400 mg/dL | Ratio [3]: 59.5

COc1ccc(/C=C/C(=O)Oc2cc(O)c3c(=O)cc(-c4ccccc4)oc3c2)cc1
Blood glucose (Mus musculus [37]): 333.3 mg/dL | Blood glucose (Mus musculus [38]): 475.9 mg/dL | Ratio [3]: 70

COc1cc(OC)c2c(=O)cc(-c3ccccc3)oc2c1 [CHRYSIN DIMETHYL ETHER]
Blood glucose (Mus musculus [37]): 399.5 mg/dL | Blood glucose (Mus musculus [38]): 444.4 mg/dL | Ratio [3]: 89.9

CCCCCCCCCCCCOc1cc(O)c2c(=O)cc(-c3ccccc3)oc2c1
Blood glucose (Mus musculus [1]): 381.3 mg/dL | Blood glucose (Mus musculus [2]): 465.6 mg/dL | Ratio [3]: 81.9

O=c1cc(-c2ccccc2)oc2cc(O)cc(O)c12 [CHRYSIN]
Blood glucose (Mus musculus [39]): 482.4 mg/dL | Blood glucose (Mus musculus [40]): 503.5 mg/dL | Ratio [3]: 104.4

O=C(Oc1cc(O)c2c(=O)cc(-c3ccccc3)oc2c1)c1ccc(F)cc1
Blood glucose (Mus musculus [37]): 362.5 mg/dL | Blood glucose (Mus musculus [38]): 458.2 mg/dL | Ratio [3]: 79.3
